From ChEMBL document CHEMBL5346961, “Discovery and Evaluation of 3-Quinoxalin Urea Derivatives as Potent, Selective, and Orally Available ATM Inhibitors Combined with Chemotherapy for the Treatment of Cancer via Goal-Oriented Molecule Generation and Virtual Screening” (J Med Chem, 2023)
Values belong to the compound of their own block, whether it stands above or below them. Active and inactive are the calls of the source. The rule behind the calls is not given here.

Tests used:
[1] = molecular target: Phosphatidylinositol 4,5-bisphosphate 3-kinase catalytic subunit alpha isoform (Homo sapiens, UniProt P42336); assay: Inhibition of PIK3alpha (unknown origin)
[2] = molecular target: T1, Serine-protein kinase ATM (Homo sapiens, UniProt Q13315); assay: Inhibition of flag tagged- ATM (unknown origin) expressed in Escherichia coli BL21 incubated for 20 mins in presence of ATP
[3] = molecular target: DNA-dependent protein kinase catalytic subunit (Homo sapiens, UniProt P78527); assay: Inhibition of DNA-PK (unknown origin)
[4] = Inhibition of PIK3 (unknown origin); parameters: species or system Homo sapiens
[5] = molecular target: T2, Serine/threonine-protein kinase ATR (Homo sapiens, UniProt Q13535); assay: Inhibition of flag tagged- ATR (unknown origin) expressed in Escherichia coli BL21 incubated for 20 mins in presence of ATP
SW-620 [6] = assay: Antitumor activity against human SW620 cells xenografted in BALB/c nude mouse model assessed as tumor growth inhibition at 40 mg/kg, po administered once daily for 3 days weekly after irinotecan post treatment for 21 days by caliper method relative to control; format: functional; details: SW-620, 504 h, time 21 day, read-out: TGI
[7] = Oral bioavailability in Balb/C mouse at 10 mg/kg measured upto 48 hrs by LC-MS/MS analysis; format: ADME, organism-based; details: in vivo
[8] = Metabolic stability in human liver microsomes assessed as half life at 1 uM in presence of NADPH-regenerating system by LC-MS/MS analysis; format: ADME, Microsome
SW-620 [9] = assay: Synergistic antiproliferative activity against human SW620 cells assessed as fold increase in irinotecan IC50 at 200 nM measured after 6 days by MTT assay; format: functional; details: time 6 day
[10] = Tmax in Balb/C mouse at 10 mg/kg,po measured upto 48 hrs by LC-MS/MS analysis; format: ADME, organism-based; details: in vivo
MCF7 [11] = assay: Antiproliferative activity against human MCF7 cells assessed as reduction in cell viability incubated for 6 days by MTT assay; format: functional, cell-based; details: MCF7, 144 h
[12] = Tmax in Balb/C mouse at 10 mg/kg,iv measured upto 48 hrs by LC-MS/MS analysis; format: ADME, organism-based; details: in vivo
[13] = Half life in Balb/C mouse at 10 mg/kg,po measured upto 48 hrs by LC-MS/MS analysis; format: ADME, organism-based; details: in vivo
HCT-116 [14] = assay: Induction of DNA damage in human HCT-116 cells assessed as reduction in ATM phosphorylation at S1981 residue at 2 uM measured after 4 hrs by Western blot analysis; format: functional, cell-based
HCT-116 [15] = assay: Antiproliferative activity against human HCT-116 cells assessed as reduction in cell viability incubated for 6 days by MTT assay; format: functional, cell-based; details: HCT-116, 144 h
MCF7 [16] = assay: Synergistic antiproliferative activity against human MCF7 cells assessed as fold increase in etoposide IC50 at 200 nM measured after 6 days by MTT assay; format: functional; details: time 6 day
HCT-116 [17] = assay: Inhibition of colony formation in human HCT-116 cells preincubated for 1 hr followed by exposure to 2 Gy gamma irradiation and measured after 1 week by crystal violet staining based […] assay; format: functional, cell-based; details: HCT-116, light or radiation study
MCF7 [18] = assay: Synergistic antiproliferative activity against human MCF7 cells assessed as fold increase in irinotecan IC50 at 200 nM measured after 6 days by MTT assay; format: functional; details: time 6 day
[19] = Clearance in Balb/C mouse at 10 mg/kg,iv measured upto 48 hrs by LC-MS/MS analysis; format: ADME, organism-based; details: in vivo
[20] = AUC (0 to t) in Balb/C mouse at 10 mg/kg,po measured upto 48 hrs by LC-MS/MS analysis; format: ADME, organism-based; parameters: dose 10 mg/kg, time < 48 hrs, route po; details: in vivo
[21] = Volume of distribution at steady state in Balb/C mouse at 10 mg/kg,iv measured upto 48 hrs by LC-MS/MS analysis; format: ADME, organism-based; details: in vivo, read-out: Vdss
[22] = AUC (0 to t) in Balb/C mouse at 10 mg/kg,iv measured upto 48 hrs by LC-MS/MS analysis; format: ADME, organism-based; parameters: time < 48 hrs, dose 10 mg/kg, route iv; details: in vivo
[23] = Half life in Balb/C mouse at 10 mg/kg,iv measured upto 48 hrs by LC-MS/MS analysis; format: ADME, organism-based; details: in vivo
HCT-116 [24] = assay: Inhibition of colony formation in human HCT-116 cells assessed as assessed as fold change in IC50 in presence of ionizing radiation; format: functional
HCT-116 [25] = assay: Induction of DNA damage in human HCT-116 cells assessed as reduction in p21 phosphorylation at T145 residue at 2 uM measured after 4 hrs by Western blot analysis; format: functional, cell-based
SW-620 [26] = assay: Synergistic inhibition of colony formation in human SW620 cells assessed as fold increase in irinotecan IC50 at 200 nM preincubated for 1 hr followed by irinotecan addition and measured after 1 week by crystal violet staining based […] assay; format: functional; details: time 169 hrs
[27] = Clearance in Balb/C mouse at 10 mg/kg,po measured upto 48 hrs by LC-MS/MS analysis; format: ADME, organism-based; details: in vivo
HCT-116 [28] = assay: Inhibition of colony formation in human HCT-116 cells at 0.01 uM preincubated for 1 hr followed by exposure to 2 Gy gamma irradiation and measured after 1 week by crystal violet staining based […] assay relative to control; format: functional; details: HCT-116, light or radiation study, time 169 hrs
[29] = Metabolic stability in human liver microsomes assessed as clearance at 1 uM in presence of NADPH-regenerating system by LC-MS/MS analysis; format: ADME, Microsome
HCT-116 [30] = assay: Antiproliferative activity against human HCT-116 cells assessed as cell survival at 1 uM incubated for 6 days by MTT assay relative to control; format: functional; details: HCT-116, 144 h, time 6 day, read-out: Survival
[31] = Volume of distribution at steady state in Balb/C mouse at 10 mg/kg,po measured upto 48 hrs by LC-MS/MS analysis; format: ADME, organism-based; details: in vivo
SW-620 [32] = assay: Antiproliferative activity against human SW620 cells assessed as reduction in cell viability incubated for 6 days by MTT assay; format: functional, cell-based; details: SW-620, 144 h
[33] = Cmax in Balb/C mouse at 10 mg/kg,iv measured upto 48 hrs by LC-MS/MS analysis; format: ADME, organism-based; parameters: time < 48 hrs, dose 10 mg/kg, route iv; details: in vivo
[34] = Cmax in Balb/C mouse at 10 mg/kg,po measured upto 48 hrs by LC-MS/MS analysis; format: ADME, organism-based; parameters: dose 10 mg/kg, time < 48 hrs, route po; details: in vivo
[35] = molecular target: T1, Serine-protein kinase ATM; assay: Inhibition of ATM (unknown origin) assessed as remaining activity at 1 uM preincubated with compound for 30 mins followed by substrate addition and measured after 2 hrs by HTRF method relative to control; details: time 2.5 hrs
[36] = molecular target: T2, Serine/threonine-protein kinase ATR; assay: Inhibition of ATR (unknown origin) assessed as remaining activity at 1 uM in presence of [gamma33P-ATP] by radiometric assay
[37] = Metabolic stability in human liver microsomes assessed as M1 metabolite formation at 1 uM in presence of NADPH-regenerating system by LC-MS/MS analysis; format: ADME, Microsome
SW-620 [38] = assay: Antiproliferative activity against human SW620 cells assessed as reduction in cell viability measured after 6 days by MTT assay; format: functional, cell-based; details: SW-620, 144 h
HCT-116 [39] = assay: Induction of apoptosis in human HCT-116 cells assessed as viable cells at 5 uM measured after 2 days by AnnexinV-FITC/PI staining based analysis (reference value: 72.8%); format: functional; details: HCT-116, 48 h, time 2 day, read-out: Activity
HCT-116 [40] = assay: Induction of DNA damage in human HCT-116 cells assessed as upregulation of p21 at T145 residue at 25 uM measured after 4 hrs by Western blot analysis; format: functional, cell-based
SW-620 [41] = assay: Antitumor activity against human SW620 cells xenografted in BALB/c nude mouse model assessed as tumor growth inhibition at 40 mg/kg, ip administered once weekly for 21 days by caliper method relative to control; format: functional; details: SW-620, 504 h, time 21 day, read-out: TGI
HCT-116 [42] = assay: Induction of DNA damage in human HCT-116 cells assessed as upregulation of gammaH2AX at 25 uM measured after 4 hrs by Western blot analysis; format: functional, cell-based
HCT-116 [43] = assay: Induction of apoptosis in human HCT-116 cells assessed as early apoptotic cells at 5 uM measured after 2 days by AnnexinV-FITC/PI staining based analysis (reference value: 14.4%); format: functional; details: time 2 day
HCT-116 [44] = assay: Induction of DNA damage in human HCT-116 cells assessed as upregulation of ATM phosphorylation at S1981 residue at 25 uM measured after 4 hrs by Western blot analysis; format: functional, cell-based
HCT-116 [45] = assay: Induction of apoptosis in human HCT-116 cells assessed as necrotic cells at 5 uM measured after 2 days by AnnexinV-FITC/PI staining based analysis (reference value: 0.64%); format: functional; details: time 2 day
HCT-116 [46] = assay: Induction of apoptosis in human HCT-116 cells assessed as late apoptotic cells at 5 uM measured after 2 days by AnnexinV-FITC/PI staining based analysis (reference value: 12.2%); format: functional; details: time 2 day
[47] = Toxicity in BALB/c nude mouse assessed as reduction in body weight at 40 mg/kg, ip administered once weekly for 21 days relative to control; format: organism-based; parameters: scale not given: the % may be the effect or the level left; details: in vivo, 504 h, time 21 day
MCF7 [48] = assay: cells; details: Homo sapiens, MCF7, 144 h
SW-620 [49] = assay: Inhibition of colony formation in human SW620 cells measured after 1 week by crystal violet staining based […] assay; format: functional, cell-based; details: SW-620, 168 h

T1 sequence (Q13315 whole entry): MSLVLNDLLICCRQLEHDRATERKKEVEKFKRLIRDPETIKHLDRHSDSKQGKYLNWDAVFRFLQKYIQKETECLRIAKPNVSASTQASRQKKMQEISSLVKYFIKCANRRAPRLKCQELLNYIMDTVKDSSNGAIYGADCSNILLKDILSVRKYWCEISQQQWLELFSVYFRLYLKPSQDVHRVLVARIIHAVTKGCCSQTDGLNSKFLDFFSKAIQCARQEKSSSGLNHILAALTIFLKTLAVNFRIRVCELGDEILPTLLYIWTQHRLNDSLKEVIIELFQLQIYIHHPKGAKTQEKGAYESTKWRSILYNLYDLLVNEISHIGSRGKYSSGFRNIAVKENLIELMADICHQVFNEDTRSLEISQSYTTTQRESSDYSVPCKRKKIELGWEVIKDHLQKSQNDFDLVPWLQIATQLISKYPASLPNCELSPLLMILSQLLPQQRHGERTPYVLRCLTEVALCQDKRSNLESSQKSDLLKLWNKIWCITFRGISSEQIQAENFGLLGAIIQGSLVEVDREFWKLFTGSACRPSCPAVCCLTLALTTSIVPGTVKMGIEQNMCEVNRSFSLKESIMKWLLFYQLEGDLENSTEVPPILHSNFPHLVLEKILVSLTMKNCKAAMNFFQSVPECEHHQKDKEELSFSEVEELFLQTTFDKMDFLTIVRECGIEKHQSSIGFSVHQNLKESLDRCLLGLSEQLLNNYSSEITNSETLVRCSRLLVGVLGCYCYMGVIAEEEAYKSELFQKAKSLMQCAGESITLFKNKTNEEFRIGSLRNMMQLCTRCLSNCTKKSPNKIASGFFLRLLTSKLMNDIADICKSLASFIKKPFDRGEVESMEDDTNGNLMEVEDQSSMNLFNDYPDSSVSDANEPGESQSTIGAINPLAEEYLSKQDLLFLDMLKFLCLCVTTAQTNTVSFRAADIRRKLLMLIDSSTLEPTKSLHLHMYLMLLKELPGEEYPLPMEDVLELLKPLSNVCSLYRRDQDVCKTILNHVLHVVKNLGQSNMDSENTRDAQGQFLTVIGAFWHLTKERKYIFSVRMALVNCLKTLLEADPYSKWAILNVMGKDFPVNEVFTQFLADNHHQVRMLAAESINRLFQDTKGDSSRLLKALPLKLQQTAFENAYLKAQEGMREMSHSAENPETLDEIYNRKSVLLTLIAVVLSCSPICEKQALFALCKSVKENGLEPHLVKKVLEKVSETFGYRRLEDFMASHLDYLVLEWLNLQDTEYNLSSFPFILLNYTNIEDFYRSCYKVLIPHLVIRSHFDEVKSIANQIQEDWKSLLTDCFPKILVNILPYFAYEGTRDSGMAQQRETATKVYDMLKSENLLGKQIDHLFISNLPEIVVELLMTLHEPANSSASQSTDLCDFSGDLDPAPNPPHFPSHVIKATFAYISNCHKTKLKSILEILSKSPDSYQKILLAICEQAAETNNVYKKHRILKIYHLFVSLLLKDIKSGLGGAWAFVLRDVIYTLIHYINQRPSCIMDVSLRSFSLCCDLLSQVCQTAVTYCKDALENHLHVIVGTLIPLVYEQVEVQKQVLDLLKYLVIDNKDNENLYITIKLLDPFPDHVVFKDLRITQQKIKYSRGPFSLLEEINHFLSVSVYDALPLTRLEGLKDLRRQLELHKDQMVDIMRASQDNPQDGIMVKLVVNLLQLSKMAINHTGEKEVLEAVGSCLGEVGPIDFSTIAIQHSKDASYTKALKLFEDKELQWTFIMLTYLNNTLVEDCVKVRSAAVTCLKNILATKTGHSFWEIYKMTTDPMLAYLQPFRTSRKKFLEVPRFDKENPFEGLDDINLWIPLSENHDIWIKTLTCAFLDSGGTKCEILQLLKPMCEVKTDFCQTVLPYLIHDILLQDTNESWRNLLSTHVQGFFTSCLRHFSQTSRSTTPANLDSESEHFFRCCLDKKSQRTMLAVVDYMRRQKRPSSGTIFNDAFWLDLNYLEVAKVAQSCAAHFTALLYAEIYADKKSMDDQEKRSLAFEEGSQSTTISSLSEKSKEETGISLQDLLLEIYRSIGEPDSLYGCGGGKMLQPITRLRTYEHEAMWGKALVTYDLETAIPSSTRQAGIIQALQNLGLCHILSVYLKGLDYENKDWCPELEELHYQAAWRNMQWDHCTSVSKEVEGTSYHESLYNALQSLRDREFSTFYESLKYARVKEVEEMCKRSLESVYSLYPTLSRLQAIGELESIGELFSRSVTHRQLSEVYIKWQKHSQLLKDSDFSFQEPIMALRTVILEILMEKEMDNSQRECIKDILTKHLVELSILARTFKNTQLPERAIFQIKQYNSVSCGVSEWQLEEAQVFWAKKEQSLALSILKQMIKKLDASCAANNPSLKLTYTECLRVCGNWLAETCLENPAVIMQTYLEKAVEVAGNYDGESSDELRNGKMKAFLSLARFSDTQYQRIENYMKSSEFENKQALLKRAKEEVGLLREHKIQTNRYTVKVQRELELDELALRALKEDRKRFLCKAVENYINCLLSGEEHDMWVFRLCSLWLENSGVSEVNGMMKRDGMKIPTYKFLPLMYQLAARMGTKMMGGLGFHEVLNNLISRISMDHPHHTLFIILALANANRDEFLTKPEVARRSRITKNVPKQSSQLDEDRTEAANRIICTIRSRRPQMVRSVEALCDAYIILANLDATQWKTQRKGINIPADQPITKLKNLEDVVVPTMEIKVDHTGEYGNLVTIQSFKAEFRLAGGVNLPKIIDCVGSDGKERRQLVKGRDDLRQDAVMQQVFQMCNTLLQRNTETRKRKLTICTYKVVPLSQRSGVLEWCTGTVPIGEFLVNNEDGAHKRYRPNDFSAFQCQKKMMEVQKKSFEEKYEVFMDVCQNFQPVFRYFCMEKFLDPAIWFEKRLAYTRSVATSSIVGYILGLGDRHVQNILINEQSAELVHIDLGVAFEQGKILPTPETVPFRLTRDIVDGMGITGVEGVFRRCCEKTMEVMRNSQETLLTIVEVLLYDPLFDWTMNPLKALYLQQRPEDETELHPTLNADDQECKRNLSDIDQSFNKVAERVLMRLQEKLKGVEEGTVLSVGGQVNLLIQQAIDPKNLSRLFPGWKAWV
Chain of Phosphatidylinositol 4,5-bisphosphate 3-kinase catalytic subunit alpha isoform (P42336 whole entry, canonical isoform): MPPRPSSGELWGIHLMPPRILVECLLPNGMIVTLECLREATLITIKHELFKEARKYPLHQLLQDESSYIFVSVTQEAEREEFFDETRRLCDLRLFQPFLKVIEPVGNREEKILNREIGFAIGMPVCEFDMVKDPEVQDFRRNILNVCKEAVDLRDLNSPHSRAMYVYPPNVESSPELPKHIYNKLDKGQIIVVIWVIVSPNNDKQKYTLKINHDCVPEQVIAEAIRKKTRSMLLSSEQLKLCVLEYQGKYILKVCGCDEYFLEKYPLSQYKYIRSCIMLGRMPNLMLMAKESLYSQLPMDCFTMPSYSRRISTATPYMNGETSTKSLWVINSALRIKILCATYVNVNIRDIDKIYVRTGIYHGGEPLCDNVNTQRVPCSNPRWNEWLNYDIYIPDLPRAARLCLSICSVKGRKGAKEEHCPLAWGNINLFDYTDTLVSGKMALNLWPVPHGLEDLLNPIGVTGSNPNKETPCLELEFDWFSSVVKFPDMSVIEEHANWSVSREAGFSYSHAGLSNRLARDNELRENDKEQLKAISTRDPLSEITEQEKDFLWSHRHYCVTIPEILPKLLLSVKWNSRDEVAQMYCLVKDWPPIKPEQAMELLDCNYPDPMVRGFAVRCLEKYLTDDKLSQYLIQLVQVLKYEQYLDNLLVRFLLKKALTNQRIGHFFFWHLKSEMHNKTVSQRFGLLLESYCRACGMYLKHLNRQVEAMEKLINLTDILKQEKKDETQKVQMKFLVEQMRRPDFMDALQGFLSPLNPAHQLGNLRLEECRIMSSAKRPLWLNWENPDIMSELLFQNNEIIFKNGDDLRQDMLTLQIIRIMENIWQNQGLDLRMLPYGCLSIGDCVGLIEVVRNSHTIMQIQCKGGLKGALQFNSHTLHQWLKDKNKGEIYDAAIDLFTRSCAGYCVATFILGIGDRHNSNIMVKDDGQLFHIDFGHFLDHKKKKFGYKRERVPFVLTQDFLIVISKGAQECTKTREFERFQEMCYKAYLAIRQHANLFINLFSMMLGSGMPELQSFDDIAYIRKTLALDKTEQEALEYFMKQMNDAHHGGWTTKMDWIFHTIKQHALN

SMILES: Cn1c(=O)n(-c2ccc(C(C)(C)C#N)cc2)c2c3cc(-c4cnc5ccccc5c4)ccc3ncc21 [DACTOLISIB]
IC50 [4]: 4 nM
IC50 [5]: 21 nM

SMILES: COCc1ccc(-c2ccc3ncc(C(N)=O)c(N[C@@H](C)C4CCOCC4)c3c2)cn1
inhibition in vivo at 40 mg/kg (SW-620 [6]): 77.7%
bioavailability [7]: 95.2%
half-life at 1 µM [8]: 193 min
fold change (FC) (SW-620 [9]): 1.5
Tmax [10]: 1.33 h
IC50 (MCF7 [11]): > 9 µM
Tmax [12]: 4.8 min
t1/2 [13]: 3.16 h
Activity (HCT-116 [14]): Active
IC50 (HCT-116 [15]): > 9 µM
fold change (FC) (MCF7 [16]): 1.4
IC50 (HCT-116 [17]): 20 nM
fold change (FC) (MCF7 [18]): 2.1
clearance [19]: 22 mL/min/kg
AUCt [20]: 7.39676 µg·h/mL
Vd [21]: 7.68 L/kg
AUCt [22]: 7.77202 µg·h/mL
t1/2 [23]: 4.28 h
fold change (FC) (HCT-116 [24]): 6520
Activity (HCT-116 [25]): Active
fold change (FC) (SW-620 [26]): 3.3
CL/F [27]: 23 mL/min/kg
inhibition at 0.01 µM (HCT-116 [28]): 13.2%
CLH [29]: 7.2 mL/min/g
viability at 1 µM (HCT-116 [30]): > 83%
Vdss [31]: 6.49 L/kg
IC50 (SW-620 [32]): > 9 µM
Cmax [33]: 3010 ng/mL
Cmax [34]: 1360 ng/mL

The next lines start with results.

IC50 [1]: 170 nM
IC50 [2]: 545 nM
IC50 [3]: 36 nM
SMILES: CC(C)(C#N)c1ccc(N2C(=O)OCc3cnc4ccc(-c5cnc6ccccc6c5)cc4c32)cc1

half-life at 1 µM [8]: 5 min
Activity [35]: -5%
Activity [36]: 102%
Drug metabolism [37]: Metabolite_Detected
CLH [29]: 293 mL/min/g
SMILES: CN(C)CCCOc1ccc(-c2ccc3ncc(NC(=O)NC4CCCCC4)nc3c2)cn1

IC50 (SW-620 [38]): 980 nM
IC50 (MCF7 [48]): 910 nM
IC50 (SW-620 [49]): 230 nM
SMILES: CCc1c2c(nc3ccc(OC(=O)N4CCC(N5CCCCC5)CC4)cc13)-c1cc3c(c(=O)n1C2)COC(=O)[C@]3(O)CC [IRINOTECAN]
viability at 5 µM (HCT-116 [39]): 52.3%
Activity (HCT-116 [40]): Active
inhibition in vivo at 40 mg/kg (SW-620 [41]): 69.2%
Activity (HCT-116 [42]): inactive
Activity (HCT-116 [43]): 26%
Activity (HCT-116 [44]): Active
Activity (HCT-116 [45]): 1.7%
Activity (HCT-116 [46]): 19.9%
Activity [47]: < 12%
